Results taken from US8952024B2, “Herbicidal pyrimidone derivatives” (E I du Pont de Nemours and Company, priority 2009, dated 2015).

Columns and labels:
Assay type in all cases: in vivo
soybean (Glycine max) = assay: Test B pre-/postemergence plant response
Description: (§1) Seeds of plant species selected from blackgrass (Alopecurus myosuroides), downy bromegrass (Bromus tectorum), green foxtail (Setaria viridis), Italian ryegrass (Lolium multiflorum), wheat (Triticum aestivum), wild oat (Avena fatua), deadnettle (henbit deadnettle, Lamium amplexicaule), galium (catchweed bedstraw, Galium aparine), bermudagrass (Cynodon dactylon), Surinam grass (Brachiaria decumbens), cocklebur (Xanthium strumarium), corn (Zea mays), large crabgrass (Digitaria sanguinalis), woolly cupgrass (Eriochloa villosa), giant foxtail (Setaria faberii), goosegrass (Eleusine indica), johnsongrass (Sorghum halepense), kochia (Kochia scoparia), lambsquarters (Chenopodium album), morningglory (Ipomoea coccinea), nightshade (eastern black nightshade, Solanum ptycanthum), yellow nutsedge (Cyperus esculentus), pigweed (Amaranthus retroflexus), ragweed (common ragweed, Ambrosia elatior), Russian thistle (Salsola kali), soybean (Glycine max), sunflower (common oilseed sunflower, Helianthus annuus) and velvetleaf (Abutilon theophrasti) were planted into a blend of loam soil and sand and treated preemergence with test compounds formulated in a non-phytotoxic solvent mixture which included a surfactant.
(§2) At the same time, plants selected from these crop and weed species and also winter barley (Hordeum vulgare), canarygrass (Phalaris minor), chickweed (Stellaria media) and windgrass (Apera spica-venti) were planted in pots containing Redi-Earth® planting medium (Scotts Company, 14111 Scottslawn Road, Marysville, Ohio 43041) comprising spaghnum peat moss, vermiculite, wetting agent and starter nutrients and treated with postemergence applications of some of the test chemicals formulated in the same manner. Plants ranged in height from 2 to 18 cm (1- to 4-leaf stage) for postemergence treatments.
(§3) Treated plants and controls were maintained in a greenhouse for 13 to 15 days, after which time all treated plants were visually evaluated and compared to controls. Plant response ratings, summarized in Table B, are based on a scale of 0 to 100 where 0 is no effect and 100 is complete control. A dash (-) response means no test result.

[1] = test system: ragweed (common ragweed, Ambrosia elatior); assay: Test B pre-/postemergence plant response
Description: as §1, §2, §3

[2] = test system: Surinam grass (Brachiaria decumbens); assay: Test B pre-/postemergence plant response
Description: as §1, §2, §3

corn (Zea mays) = assay: Test B pre-/postemergence plant response
Description: as §1, §2, §3

[3] = test system: morningglory (Ipomoea coccinea); assay: Test B pre-/postemergence plant response
Description: as §1, §2, §3

[4] = test system: Italian ryegrass (Lolium multiflorum); assay: Test B pre-/postemergence plant response
Description: as §1, §2, §3

[5] = test system: bermudagrass (Cynodon dactylon); assay: Test B pre-/postemergence plant response
Description: as §1, §2, §3

[6] = test system: blackgrass (Alopecurus myosuroides); assay: Test B pre-/postemergence plant response
Description: as §1, §2, §3

[7] = test system: cocklebur (Xanthium strumarium); assay: Test B pre-/postemergence plant response
Description: as §1, §2, §3

[8] = test system: umbrella sedge (Cyperus difformis); assay: Test B flooded paddy test; conditions: for Plant response rating, Sedge, Umbrella: Flood (flooded paddy test), 13 to 15 days
In short: (§4)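 2-leaf seedlings; pots flooded 3 cm over soil at treatment; cpd dosed into floodwater, depth kept constant. Greenhouse 13–15 d. Visual rating vs untreated controls, 0 = no effect, 100 = complete control.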

rice (Oryza sativa) = assay: Test B flooded paddy test; conditions: for Plant response rating, Rice: Flood (flooded paddy test), 13 to 15 days
In short: as §4

[9] = test system: barnyardgrass (Echinochloa crus-galli); assay: Test B flooded paddy test; conditions: for Plant response rating, Barnyardgrass: Flood (flooded paddy test), 13 to 15 days
In short: as §4

[10] = test system: ducksalad (Heteranthera limosa); assay: Test B flooded paddy test; conditions: for Plant response rating, Ducksalad: Flood (flooded paddy test), 13 to 15 days
In short: as §4

[11] = 250 g ai/ha, Preemergence, 0 to 100 scale
[12] = Postemergence, 31 g ai/ha, scale 0 to 100 (0 no effect, 100 complete control)
[13] = Postemergence, 62 g ai/ha, scale 0 (no effect) to 100 (complete control), 13 to 15 days
[14] = Postemergence, 125 g ai/ha, visual rating after 13 to 15 days, scale 0 (no effect) to 100 (complete control)
[15] = Postemergence, 250 g ai/ha, scale 0 to 100
[16] = Preemergence, 31 g ai/ha, scale 0 to 100 (0 no effect, 100 complete control)
[17] = Preemergence, 62 g ai/ha, scale 0 to 100 (0 no effect, 100 complete control)
[18] = Preemergence, 125 g ai/ha, 0 to 100 scale
[19] = 250 g ai/ha, flooded paddy test, visual rating on 0 to 100 scale (0 no effect, 100 complete control) after 13 to 15 days
[20] = 31 g ai/ha, scale of 0 to 100 where 0 is no effect and 100 is complete control
[21] = 62 g ai/ha, scale 0 to 100, 0 is no effect, 100 is complete control
[22] = 125 g ai/ha, scale 0 to 100, 0 is no effect, 100 is complete control

3-cyclohexyl-5-[(2-hydroxy-6-oxo-1-cyclohexen-1-yl)carbonyl]-2-phenyl-4(3H)-pyrimidinone [Compound 128]
Plant response rating, Soybean (soybean (Glycine max); [11]): 95 | Plant response rating, Soybean (soybean (Glycine max); [12]): 100 | Plant response rating, Soybean (soybean (Glycine max); [13]): 100 | Plant response rating, Soybean (soybean (Glycine max); [14]): 100 | Soybean plant response rating (soybean (Glycine max); [15]): 100 | Plant response rating, Soybean (soybean (Glycine max); [16]): 25 | Plant response rating, Soybean (soybean (Glycine max); [17]): 45 | Soybean plant response rating (soybean (Glycine max); [18]): 65 | Plant response rating, Ragweed [1, 11]: 100 | Plant response rating, Ragweed [1, 12]: 100 | Plant response rating, Ragweed [1, 13]: 100 | Plant response rating, Ragweed [1, 14]: 100 | Ragweed plant response rating [1, 15]: 100 | Plant response rating, Ragweed [1, 16]: 65 | Plant response rating, Ragweed [1, 17]: 100 | Ragweed plant response rating [1, 18]: 100 | Plant response rating, Surinam Grass [2, 11]: 75 | Plant response rating, Surinam Grass [2, 12]: 60 | Plant response rating, Surinam Grass [2, 13]: 70 | Plant response rating, Surinam Grass [2, 14]: 85 | Surinam Grass plant response rating [2, 15]: 85 | Plant response rating, Surinam Grass [2, 16]: 0 | Plant response rating, Surinam Grass [2, 17]: 25 | Surinam Grass plant response rating [2, 18]: 35 | Plant response rating, Corn (corn (Zea mays); [11]): 35 | Plant response rating, Corn (corn (Zea mays); [12]): 70 | Plant response rating, Corn (corn (Zea mays); [13]): 75 | Plant response rating, Corn (corn (Zea mays); [14]): 80 | Corn plant response rating (corn (Zea mays); [15]): 85 | Plant response rating, Corn (corn (Zea mays); [16]): 0 | Plant response rating, Corn (corn (Zea mays); [17]): 0 | Corn plant response rating (corn (Zea mays); [18]): 0 | Plant response rating, Morningglory [3, 11]: 100 | Plant response rating, Morningglory [3, 12]: 15 | Plant response rating, Morningglory [3, 13]: 15 | Plant response rating, Morningglory [3, 14]: 70 | Morningglory plant response rating [3, 15]: 80 | Plant response rating, Morningglory [3, 16]: 0 | Plant response rating, Morningglory [3, 17]: 0 | Morningglory plant response rating [3, 18]: 35 | Plant response rating, Ryegrass, Italian [4, 11]: 0 | Plant response rating, Ryegrass, Italian [4, 12]: 10 | Plant response rating, Ryegrass, Italian [4, 13]: 10 | Plant response rating, Ryegrass, Italian [4, 14]: 40 | Ryegrass, Italian plant response rating [4, 15]: 40 | Plant response rating, Ryegrass, Italian [4, 16]: 0 | Plant response rating, Ryegrass, Italian [4, 17]: 0 | Ryegrass, Italian plant response rating [4, 18]: 0 | Plant response rating, Bermudagrass [5, 11]: 100 | Plant response rating, Bermudagrass [5, 12]: 80 | Plant response rating, Bermudagrass [5, 13]: 100 | Plant response rating, Bermudagrass ([5]; Postemergence, 125 g ai/ha, scale 0 to 100 (0 no effect, 100 complete control), 13 to 15 days): 100 | Bermudagrass plant response rating [5, 15]: 100 | Plant response rating, Bermudagrass [5, 16]: 98 | Plant response rating, Bermudagrass [5, 17]: 100 | Bermudagrass plant response rating [5, 18]: 100 | Plant response rating, Blackgrass [6, 11]: 60 | Plant response rating, Blackgrass [6, 12]: 5 | Plant response rating, Blackgrass [6, 13]: 5 | Plant response rating, Blackgrass [6, 14]: 40 | Blackgrass plant response rating [6, 15]: 40 | Plant response rating, Blackgrass [6, 16]: 0 | Plant response rating, Blackgrass [6, 17]: 5 | Blackgrass plant response rating [6, 18]: 30 | Plant response rating, Cocklebur [7, 11]: 100 | Plant response rating, Cocklebur [7, 12]: 90 | Plant response rating, Cocklebur [7, 13]: 100 | Plant response rating, Cocklebur [7, 14]: 100 | Cocklebur plant response rating [7, 15]: 100 | Plant response rating, Cocklebur [7, 16]: 35 | Plant response rating, Cocklebur [7, 17]: 75 | Cocklebur plant response rating [7, 18]: 95 | Plant response rating, Flood, Sedge, Umbrella [8, 19]: 85 | Plant response rating, Sedge, Umbrella [8, 20]: 0 | Plant response rating, Sedge, Umbrella [8, 21]: 0 | Plant response rating, Sedge, Umbrella [8, 22]: 40 | Plant response rating, Flood, Rice (rice (Oryza sativa); [19]): 25 | Plant response rating, Rice (rice (Oryza sativa); [20]): 0 | Plant response rating, Rice (rice (Oryza sativa); [21]): 10 | Plant response rating, Rice (rice (Oryza sativa); [22]): 20 | Plant response rating, Flood, Barnyardgrass [9, 19]: 25 | Plant response rating, Barnyardgrass [9, 20]: 0 | Plant response rating, Barnyardgrass [9, 21]: 0 | Plant response rating, Barnyardgrass [9, 22]: 0 | Plant response rating, Flood, Ducksalad [10, 19]: 80 | Plant response rating, Ducksalad [10, 20]: 0 | Plant response rating, Ducksalad [10, 21]: 0 | Plant response rating, Ducksalad [10, 22]: 65
